# Results published in paper PMC12298351, “Novel 3,19-(N-Phenyl-3-(4-fluorophenyl)-pyrazole) Acetal of Andrographolide Promotes Cell Cycle Arrest and Apoptosis in MDA-MB-231 Breast Cancer Cells” (Pharmaceuticals, 2025).
# How the values were obtained:
# COLO 205 = conditions: COLO 205, Colon
# NCI/ADR-RES = conditions: for GI50 / Total growth inhibition (TGI): Ovarian
# SNB-75 = conditions: SNB-75, CNS; for CC50: read-out: 50% lethal concentration (LC50)
# HS 578T = conditions: for GI50 / Total growth inhibition (TGI): Breast; for CC50: read-out: 50% lethal concentration (LC50), Breast
# UACC-257 = conditions: UACC-257, Melanoma
# TK-10 = type: cell-based; conditions: TK-10, Renal
# SNB-19 = type: cell-based; conditions: SNB-19, CNS
# HOP-92 = conditions: for Total growth inhibition (TGI) / CC50: HOP-92, Non-Small Cell Lung; for GI50: HOP-92, Non-Small-Cell Lung; for CC50: read-out: 50% lethal concentration (LC50)
# HL-60(TB) = conditions: for CC50: read-out: 50% lethal concentration (LC50), Leukemia
# LOX IMVI = conditions: for GI50 / Total growth inhibition (TGI): Melanoma; for CC50: read-out: 50% lethal concentration (LC50), Melanoma
# SN12C = conditions: for GI50 / Total growth inhibition (TGI): Renal; for CC50: read-out: 50% lethal concentration (LC50), Renal
# SK-MEL-2 = conditions: SK-MEL-2, Melanoma
# HT29 = conditions: HT29, Colon; for CC50: read-out: 50% lethal concentration (LC50)
# UO-31 = conditions: UO-31, Renal; for CC50: read-out: 50% lethal concentration (LC50)
# OVCAR-4 = type: cell-based; conditions: OVCAR-4, Ovarian; for CC50: read-out: 50% lethal concentration (LC50)
# OVCAR-8 = conditions: OVCAR-8, Ovarian; for CC50: read-out: 50% lethal concentration (LC50)
# CCRF-CEM = conditions: for CC50: read-out: 50% lethal concentration (LC50), Leukemia
# A498 = conditions: A498, Renal; for CC50: read-out: 50% lethal concentration (LC50)
# SR = conditions: for GI50 / Total growth inhibition (TGI): Leukemia; for CC50: read-out: 50% lethal concentration (LC50), Leukemia
# NCI-H522 = conditions: for Total growth inhibition (TGI) / CC50: NCI-H522, Non-Small Cell Lung; for GI50: NCI-H522, Non-Small-Cell Lung; for CC50: read-out: 50% lethal concentration (LC50)
# A549/ATCC = conditions: for Total growth inhibition (TGI): Non-Small Cell Lung; for GI50: Non-Small-Cell Lung; for CC50: read-out: 50% lethal concentration (LC50), Non-Small Cell Lung
# BT-549 = type: cell-based; conditions: BT-549, Breast
# T-47D = conditions: for GI50 / Total growth inhibition (TGI): Breast; for CC50: read-out: 50% lethal concentration (LC50), Breast
# M14 = type: cell-based; conditions: M14, Melanoma
# MALME-3M = conditions: Melanoma
# HOP-62 = conditions: for Total growth inhibition (TGI) / CC50: HOP-62, Non-Small Cell Lung; for GI50: HOP-62, Non-Small-Cell Lung; for CC50: read-out: 50% lethal concentration (LC50)
# PC-3 = conditions: PC-3, Prostate; for CC50: read-out: 50% lethal concentration (LC50)
# K-562 = conditions: K-562, Leukemia; for CC50: read-out: 50% lethal concentration (LC50)
# NCI-H23 = conditions: for Total growth inhibition (TGI) / CC50: NCI-H23, Non-Small Cell Lung; for GI50: NCI-H23, Non-Small-Cell Lung; for CC50: read-out: 50% lethal concentration (LC50)
# UACC-62 = conditions: UACC-62, Melanoma; for CC50: read-out: 50% lethal concentration (LC50)
# U251 = conditions: U251, CNS
# SW-620 = conditions: SW-620, Colon; for CC50: read-out: 50% lethal concentration (LC50)
# [1] = read-out: 50% lethal concentration (LC50)
smiles,measurement,setting,value
C=C1CCC2C3(C)COC(c4cn(-c5ccccc5)nc4-c4ccc(Br)cc4)OC3CCC2(C)C1CC=C1C(=O)OCC1O (stereo not shown) [1h],GI50,COLO 205,1.7 µM
same,Total growth inhibition (TGI),COLO 205,3.51 µM
same,GI50,NCI/ADR-RES,1.83 µM
same,Total growth inhibition (TGI),NCI/ADR-RES,4.19 µM
same,GI50,SNB-75,1.51 µM
same,Total growth inhibition (TGI),SNB-75,2.91 µM
same,CC50,SNB-75,5.75 µM
same,GI50,HS 578T,1.52 µM
same,Total growth inhibition (TGI),HS 578T,3.01 µM
same,CC50,HS 578T,5.94 µM
same,GI50,UACC-257,1.7 µM
same,Total growth inhibition (TGI),UACC-257,3.35 µM
same,GI50,TK-10,1.19 µM
same,GI50,SNB-19,1.47 µM
same,Total growth inhibition (TGI),HOP-92,2.92 µM
same,GI50,HOP-92,1.38 µM
same,CC50,HOP-92,6.2 µM
same,GI50,HL-60(TB); Leukemia,0.67 µM
same,CC50,HL-60(TB),> 100 µM
same,GI50,LOX IMVI,1.55 µM
same,Total growth inhibition (TGI),LOX IMVI,2.9 µM
same,CC50,LOX IMVI,5.41 µM
same,GI50,SN12C,1.51 µM
same,Total growth inhibition (TGI),SN12C,3.37 µM
same,CC50,SN12C,7.48 µM
same,GI50,SK-MEL-2,1.76 µM
same,Total growth inhibition (TGI),SK-MEL-2,3.18 µM
same,GI50,HT29,2.16 µM
same,Total growth inhibition (TGI),HT29,6.51 µM
same,CC50,HT29,> 100 µM
same,GI50,UO-31,2.07 µM
same,Total growth inhibition (TGI),UO-31,2.52 µM
same,CC50,UO-31,5.34 µM
same,GI50,OVCAR-4,1.89 µM
same,Total growth inhibition (TGI),OVCAR-4,4.27 µM
same,CC50,OVCAR-4,> 100 µM
same,GI50,OVCAR-8,1.55 µM
same,Total growth inhibition (TGI),OVCAR-8,3.4 µM
same,CC50,OVCAR-8,7.45 µM
same,GI50,CCRF-CEM; Leukemia,0.48 µM
same,CC50,CCRF-CEM,> 100 µM
same,GI50,A498,4.35 µM
same,Total growth inhibition (TGI),A498,1.66 µM
same,CC50,A498,53.6 µM
same,GI50,SR,1.69 µM
same,Total growth inhibition (TGI),SR,8.13 µM
same,CC50,SR,> 100 µM
same,Total growth inhibition (TGI),NCI-H522,3.37 µM
same,GI50,NCI-H522,1.69 µM
same,CC50,NCI-H522,6.68 µM
same,Total growth inhibition (TGI),A549/ATCC,51.6 µM
same,GI50,A549/ATCC,3.1 µM
same,CC50,A549/ATCC,> 100 µM
same,GI50,BT-549,1.47 µM
same,Total growth inhibition (TGI),BT-549,3.5 µM
same,GI50,T-47D,1.18 µM
same,Total growth inhibition (TGI),T-47D,3.13 µM
same,CC50,T-47D,8.33 µM
same,GI50,M14,1.71 µM
same,Total growth inhibition (TGI),M14,3.55 µM
same,GI50,MALME-3M,1.6 µM
same,Total growth inhibition (TGI),MALME-3M,3.11 µM
same,Total growth inhibition (TGI),HOP-62,3.83 µM
same,GI50,HOP-62,1.8 µM
same,CC50,HOP-62,8.12 µM
same,GI50,PC-3,2.03 µM
same,CC50,PC-3,> 100 µM
same,GI50,K-562,2.07 µM
same,CC50,K-562,> 100 µM
same,Total growth inhibition (TGI),NCI-H23,3.62 µM
same,GI50,NCI-H23,1.71 µM
same,CC50,NCI-H23,7.67 µM
same,GI50,UACC-62,1.58 µM
same,Total growth inhibition (TGI),UACC-62,3.13 µM
same,CC50,UACC-62,6.2 µM
same,GI50,U251,2.11 µM
same,Total growth inhibition (TGI),U251,2.89 µM
same,Total growth inhibition (TGI),SW-620,> 100 µM
same,CC50,SW-620,> 100 µM
C=C1CCC2C3(C)COC(c4cn(-c5ccccc5)nc4-c4ccc(OC)cc4)OC3CCC2(C)C1CC=C1C(=O)OCC1O (stereo not shown) [1j],GI50,COLO 205,1.95 µM
same,Total growth inhibition (TGI),COLO 205,4.24 µM
same,GI50,NCI/ADR-RES,1.94 µM
same,Total growth inhibition (TGI),NCI/ADR-RES,4.41 µM
same,CC50,"NCI/ADR-RES; read-out: 50% lethal concentration (LC50), Ovarian",> 100 µM
same,GI50,SNB-75,1.15 µM
same,Total growth inhibition (TGI),SNB-75,5.09 µM
same,CC50,SNB-75,24.4 µM
same,GI50,HS 578T,1.86 µM
same,Total growth inhibition (TGI),HS 578T,4.88 µM
same,CC50,HS 578T,> 100 µM
same,GI50,UACC-257,1.64 µM
same,Total growth inhibition (TGI),UACC-257,3.28 µM
same,GI50,TK-10,1.95 µM
same,Total growth inhibition (TGI),TK-10,4.13 µM
same,CC50,TK-10; [1],8.77 µM
same,GI50,SNB-19,2.46 µM
same,Total growth inhibition (TGI),SNB-19,7.42 µM
same,CC50,SNB-19; [1],34.6 µM
same,Total growth inhibition (TGI),HOP-92,3.02 µM
same,GI50,HOP-92,1.47 µM
same,CC50,HOP-92,6.2 µM
same,GI50,HL-60(TB); Leukemia,1.08 µM
same,Total growth inhibition (TGI),HL-60(TB); Leukemia,3.96 µM
same,CC50,HL-60(TB),> 100 µM
same,GI50,LOX IMVI,1.57 µM
same,Total growth inhibition (TGI),LOX IMVI,2.93 µM
same,CC50,LOX IMVI,5.47 µM
same,GI50,SN12C,1.98 µM
same,Total growth inhibition (TGI),SN12C,5.94 µM
same,CC50,SN12C,65.1 µM
same,GI50,SK-MEL-2,1.57 µM
same,Total growth inhibition (TGI),SK-MEL-2,3.08 µM
same,GI50,HT29,1.7 µM
same,Total growth inhibition (TGI),HT29,3.38 µM
same,CC50,HT29,6.73 µM
same,GI50,UO-31,1.22 µM
same,Total growth inhibition (TGI),UO-31,2.54 µM
same,CC50,UO-31,5.25 µM
same,GI50,OVCAR-4,1.72 µM
same,Total growth inhibition (TGI),OVCAR-4,4.23 µM
same,CC50,OVCAR-4,> 100 µM
same,GI50,OVCAR-8,1.35 µM
same,Total growth inhibition (TGI),OVCAR-8,2.84 µM
same,CC50,OVCAR-8,5.97 µM
same,GI50,CCRF-CEM; Leukemia,0.64 µM
same,Total growth inhibition (TGI),CCRF-CEM; Leukemia,> 100 µM
same,CC50,CCRF-CEM,> 100 µM
same,GI50,A498,2.63 µM
same,Total growth inhibition (TGI),A498,11.3 µM
same,CC50,A498,39.2 µM
same,GI50,SR,1.74 µM
same,Total growth inhibition (TGI),SR,5.21 µM
same,CC50,SR,> 100 µM
same,Total growth inhibition (TGI),NCI-H522,3.24 µM
same,GI50,NCI-H522,1.73 µM
same,CC50,NCI-H522,6.06 µM
same,Total growth inhibition (TGI),A549/ATCC,7.29 µM
same,GI50,A549/ATCC,2.39 µM
same,CC50,A549/ATCC,62.2 µM
same,GI50,BT-549,1.65 µM
same,Total growth inhibition (TGI),BT-549,3.23 µM
same,GI50,T-47D,1.8 µM
same,Total growth inhibition (TGI),T-47D,5.02 µM
same,CC50,T-47D,> 100 µM
same,GI50,M14,1.72 µM
same,Total growth inhibition (TGI),M14,3.54 µM
same,GI50,MALME-3M,1.54 µM
same,Total growth inhibition (TGI),MALME-3M,2.93 µM
same,Total growth inhibition (TGI),HOP-62,10.4 µM
same,GI50,HOP-62,2.65 µM
same,CC50,HOP-62,86.3 µM
same,GI50,PC-3,2.18 µM
same,CC50,PC-3,> 100 µM
same,GI50,K-562,1.9 µM
same,CC50,K-562,> 100 µM
same,Total growth inhibition (TGI),NCI-H23,3.74 µM
same,GI50,NCI-H23,1.71 µM
same,CC50,NCI-H23,8.2 µM
same,GI50,UACC-62,1.91 µM
same,Total growth inhibition (TGI),UACC-62,4.26 µM
same,CC50,UACC-62,9.48 µM
same,GI50,U251,1.66 µM
same,Total growth inhibition (TGI),U251,3.1 µM
same,GI50,SW-620,1.69 µM
same,Total growth inhibition (TGI),SW-620,3.8 µM
same,CC50,SW-620,8.55 µM
